In patent US8580794B2 (AbbVie Inc., priority 2009, dated 2013):

target: GST-Bc1-2 (Homo sapiens, UniProt P10415); assay: Time Resolved-Fluorescence Resonance Energy Transfer (TR-FRET) Bcl-2 binding assay with F-Bak peptide probe; conditions: GST-Bcl-2 1 nM, F-Bak probe 100 nM, Tb-anti-GST 1 nM; '<' = below limit of detection; read-out: TR-FRET Bcl-2 Binding Ki
Sequence (P10415 whole entry): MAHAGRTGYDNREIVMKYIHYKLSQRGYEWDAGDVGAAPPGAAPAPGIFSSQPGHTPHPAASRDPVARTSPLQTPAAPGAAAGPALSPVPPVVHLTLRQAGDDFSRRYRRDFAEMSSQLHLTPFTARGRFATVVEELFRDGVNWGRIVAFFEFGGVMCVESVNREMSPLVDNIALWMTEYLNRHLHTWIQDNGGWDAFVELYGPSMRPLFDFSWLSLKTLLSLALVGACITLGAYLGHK

Question: For `CN(C)CC(=O)N1CC[C@@H](Nc2ccc(S(=O)(=O)NC(=O)c3ccc(N4CCN(CC5=C(c6ccc(Cl)cc6)CC(C)(C)CC5)CC4)cc3Oc3cnc4[nH]ccc4c3)cc2[N+](=O)[O-])C1` [Example 255, 4-(4-{[2-(4-chlorophenyl)-4,4-dimethylcyclohex-1-en-1-yl]methyl}piperazin-1-yl)-N-[(4-{[(3R)-1-(N,N-dimethylglycyl)pyrrolidin-3-yl]amino}-3-nitrophenyl)sulfonyl]-2-(1H-pyrrolo[2,3-b]pyridin-5-yloxy)benzamide], which Ki is on record?
Answer: < 0.01 nM

Question: For `CC1(C)CCC(CN2CCN(c3ccc(C(=O)NS(=O)(=O)c4ccc(NCC5COCCN5)c([N+](=O)[O-])c4)c(Oc4cnc5[nH]ccc5c4)c3)CC2)=C(c2ccc(Cl)cc2)C1` (stereo not shown) [Example 66, 4-(4-{[2-(4-chlorophenyl)-4,4-dimethylcyclohex-1-en-1-yl]methyl}piperazin-1-yl)-N-({4-[(morpholin-3-ylmethyl)amino]-3-nitrophenyl}sulfonyl)-2-(1H-pyrrolo[2,3-b]pyridin-5-yloxy)benzamide], which Ki is on record?
Answer: < 0.01 nM

Question: With `CC1(C)CCC(CN2CCN(c3ccc(C(=O)NS(=O)(=O)c4ccc(NN5CCN(C6COC6)CC5)c([N+](=O)[O-])c4)c(Oc4cnc5[nH]ccc5c4)c3)CC2)=C(c2ccc(Cl)cc2)C1` [Example 236, 4-(4-{[2-(4-chlorophenyl)-4,4-dimethylcyclohex-1-en-1-yl]methyl}piperazin-1-yl)-N-[(3-nitro-4-{[4-(oxetan-3-yl)piperazin-1-yl]amino}phenyl)sulfonyl]-2-(1H-pyrrolo[2,3-b]pyridin-5-yloxy)benzamide] as the compound, how does the Ki read?
Answer: 0.033 nM

Question: For `CC1(C)CCC(CN2CCN(c3ccc(C(=O)NS(=O)(=O)c4ccc(NCC56CC7CC(C5)C(O)C(C7)C6)c([N+](=O)[O-])c4)c(Oc4cnc5[nH]ccc5c4)c3)CC2)=C(c2ccc(Cl)cc2)C1` (stereo not shown) [Example 199, 4-(4-{[2-(4-chlorophenyl)-4,4-dimethylcyclohex-1-en-1-yl]methyl}piperazin-1-yl)-N-{[4-({[(E)-4-hydroxy-1-adamantyl]methyl}amino)-3-nitrophenyl]sulfonyl}-2-(1H-pyrrolo[2,3-b]pyridin-5-yloxy)benzamide], which Ki is on record?
Answer: < 0.01 nM

Question: For `CC1CN(c2ccc(C(=O)NS(=O)(=O)c3ccc(NCC4CCOCC4)c([N+](=O)[O-])c3)c(Oc3cnc4[nH]ccc4c3)c2)CCN1CC1=C(c2ccc(Cl)cc2)CC(C)(C)CC1` (stereo not shown) [Example 290, 4-(4-{[2-(4-chlorophenyl)-4,4-dimethylcyclohex-1-en-1-yl]methyl}-3-methylpiperazin-1-yl)-N-({3-nitro-4-[(tetrahydro-2H-pyran-4-ylmethyl)amino]phenyl}sulfonyl)-2-(1H-pyrrolo[2,3-b]pyridin-5-yloxy)benzamide], which Ki is on record?
Answer: < 0.01 nM

Question: With `CC1(C)CCC(CN2CCN(c3ccc(C(=O)NS(=O)(=O)c4ccc(NCc5cccc(O)c5)c([N+](=O)[O-])c4)c(Oc4cnc5[nH]ccc5c4)c3)CC2)=C(c2ccc(Cl)cc2)C1` [Example 186, 4-(4-{[2-(4-chlorophenyl)-4,4-dimethylcyclohex-1-en-1-yl]methyl}piperazin-1-yl)-N-({4-[(3-hydroxybenzyl)amino]-3-nitrophenyl}sulfonyl)-2-(1H-pyrrolo[2,3-b]pyridin-5-yloxy)benzamide] as the compound, how does the Ki read?
Answer: 0.047 nM

Question: Which Ki does the source give for `CC1(C)CCC(CN2CCN(c3ccc(C(=O)NS(=O)(=O)c4ccc(NCC5CCOCC5)c(Cl)c4)c(Oc4cnc5[nH]ccc5c4)c3)CC2)=C(c2ccc(Cl)cc2)C1` [Example 306, 4-(4-{[2-(4-chlorophenyl)-4,4-dimethylcyclohex-1-en-1-yl]methyl}piperazin-1-yl)-N-({3-chloro-4-[(tetrahydro-2H-pyran-4-ylmethyl)amino]phenyl}sulfonyl)-2-(1H-pyrrolo[2,3-b]pyridin-5-yloxy)benzamide] here?
Answer: 2.07 nM

Question: For `CC1(C)CCC(CN2CCN(c3ccc(C(=O)NS(=O)(=O)c4cnc(OCC5CCN(CC#N)CC5)c(Cl)c4)c(Oc4cnc5[nH]ccc5c4)c3)CC2)=C(c2ccc(Cl)cc2)C1` [Example 253, N-[(5-chloro-6-{[1-(cyanomethyl)piperidin-4-yl]methoxy}pyridin-3-yl)sulfonyl]-4-(4-{[2-(4-chlorophenyl)-4,4-dimethylcyclohex-1-en-1-yl]methyl}piperazin-1-yl)-2-(1H-pyrrolo[2,3-b]pyridin-5-yloxy)benzamide], which Ki is on record?
Answer: 0.052 nM

Question: Which Ki does the source give for `CC1(C)CC(c2ccc(Cl)cc2)=C(CN2CCN(c3ccc(C(=O)NS(=O)(=O)c4cnc(OCC5CCOCC5)c(Cl)c4)c(Oc4cnc5[nH]ccc5c4)c3)CC2)CO1` [Example 41, 4-(4-{[4-(4-chlorophenyl)-6,6-dimethyl-5,6-dihydro-2H-pyran-3-yl]methyl}piperazin-1-yl)-N-{[5-chloro-6-(tetrahydro-2H-pyran-4-ylmethoxy)pyridin-3-yl]sulfonyl}-2-(1H-pyrrolo[2,3-b]pyridin-5-yloxy)benzamide] here?
Answer: < 0.01 nM

Question: For `CO[C@H]1CC[C@@H](COc2ccc(S(=O)(=O)NC(=O)c3ccc(N4CCN(CC5=C(c6ccc(Cl)cc6)CC(C)(C)CC5)CC4)cc3Oc3cnc4[nH]ccc4c3)cc2[N+](=O)[O-])CC1` [Example 121, 2-(1H-pyrrolo[2,3-b]pyridin-5-yloxy)-4-(4-((2-(4-chlorophenyl)-4,4-dimethylcyclohex-1-enyl)methyl)piperazin-1-yl)-N-(4-((cis-4-methoxycyclohexyl)methoxy)-3-nitrophenylsulfonyl)benzamide], which Ki is on record?
Answer: < 0.01 nM

Question: `CC1(C)CCC(CC2CCN(c3ccc(C(=O)NS(=O)(=O)c4ccc(NCC5CCOCC5)c([N+](=O)[O-])c4)c(Oc4cnc5[nH]ccc5c4)c3)CC2)=C(c2ccc(Cl)cc2)C1` [Example 315, 4-(4-{[2-(4-chlorophenyl)-4,4-dimethylcyclohex-1-en-1-yl]methyl}piperidin-1-yl)-N-({3-nitro-4-[(tetrahydro-2H-pyran-4-ylmethyl)amino]phenyl}sulfonyl)-2-(1H-pyrrolo[2,3-b]pyridin-5-yloxy)benzamide] was tested. Which Ki did it give?
Answer: 0.052 nM

Question: With `CC1(C)CCC(CN2CCN(c3ccc(C(=O)NS(=O)(=O)c4ccc(NC[C@@H]5CC[C@@H](O)C5)c([N+](=O)[O-])c4)c(Oc4cnc5[nH]ccc5c4)c3)CC2)=C(c2ccc(Cl)cc2)C1` [Example 156, 4-(4-{[2-(4-chlorophenyl)-4,4-dimethylcyclohex-1-en-1-yl]methyl}piperazin-1-yl)-N-{[4-({[(1R,3R)-3-hydroxycyclopentyl]methyl}amino)-3-nitrophenyl]sulfonyl}-2-(1H-pyrrolo[2,3-b]pyridin-5-yloxy)benzamide] as the compound, how does the Ki read?
Answer: < 0.01 nM

Question: How did the Ki turn out when `CC1(C)CCC(CN2CCN(c3ccc(C(=O)NS(=O)(=O)c4ccc(OCC5CN(C6CC6)CCO5)c(Cl)c4)c(Oc4cnc5[nH]ccc5c4)c3)CC2)=C(c2ccc(Cl)cc2)C1` (stereo not shown) [Example 331, N-({3-chloro-4-[(4-cyclopropylmorpholin-2-yl)methoxy]phenyl}sulfonyl)-4-(4-{[2-(4-chlorophenyl)-4,4-dimethylcyclohex-1-en-1-yl]methyl}piperazin-1-yl)-2-(1H-pyrrolo[2,3-b]pyridin-5-yloxy)benzamide] was run?
Answer: 1.09 nM

same assay, conditions: TR-FRET Bcl-2 Binding Ki

Question: For `CC1(C)CCC(CN2CCN(c3ccc(C(=O)NS(=O)(=O)c4ccc(OCC5COCCO5)c([N+](=O)[O-])c4)c(Oc4ccc5[nH]ccc5c4)c3)CC2)=C(c2ccc(Cl)cc2)C1` (stereo not shown) [Example 92, 4-(4-{[2-(4-chlorophenyl)-4,4-dimethylcyclohex-1-en-1-yl]methyl}piperazin-1-yl)-N-{[4-(1,4-dioxan-2-ylmethoxy)-3-nitrophenyl]sulfonyl}-2-(1H-indol-5-yloxy)benzamide], which Ki is on record?
Answer: 0.128 nM

same assay, conditions: read-out: Bcl-2 FRET Ki

Question: `CC1(C)CCC(CN2CCN(c3ccc(C(=O)NS(=O)(=O)c4ccc(OCC5COCCO5)c([N+](=O)[O-])c4)c(Oc4ccc5[nH]ccc5c4)c3)CC2)=C(c2ccc(Cl)cc2)C1` (stereo not shown) [Example 92, 4-(4-{[2-(4-chlorophenyl)-4,4-dimethylcyclohex-1-en-1-yl]methyl}piperazin-1-yl)-N-{[4-(1,4-dioxan-2-ylmethoxy)-3-nitrophenyl]sulfonyl}-2-(1H-indol-5-yloxy)benzamide] was tested. Which Ki did it give?
Answer: 0.128 nM

same assay, conditions: read-out: Bcl-2 FRET ki

Question: With `CC1(C)CCC(CN2CCN(c3ccc(C(=O)NS(=O)(=O)c4ccc(OCC5COCCO5)c([N+](=O)[O-])c4)c(Oc4ccc5[nH]ccc5c4)c3)CC2)=C(c2ccc(Cl)cc2)C1` (stereo not shown) [Example 92, 4-(4-{[2-(4-chlorophenyl)-4,4-dimethylcyclohex-1-en-1-yl]methyl}piperazin-1-yl)-N-{[4-(1,4-dioxan-2-ylmethoxy)-3-nitrophenyl]sulfonyl}-2-(1H-indol-5-yloxy)benzamide] as the compound, how does the Ki read?
Answer: 0.128 nM
